Source: patent US8487121B2, “Chromane derivatives as TRPV3 modulators” (Glenmark Pharmaceuticals S.A., priority 2007, dated 2013)

Target: T1, Human TRPV3 (Homo sapiens, UniProt Q8NET8)
T1 construct: expressed in transfected cells; host or cells: CHO cells (G-418 selected)
T1 sequence (Q8NET8 1-790): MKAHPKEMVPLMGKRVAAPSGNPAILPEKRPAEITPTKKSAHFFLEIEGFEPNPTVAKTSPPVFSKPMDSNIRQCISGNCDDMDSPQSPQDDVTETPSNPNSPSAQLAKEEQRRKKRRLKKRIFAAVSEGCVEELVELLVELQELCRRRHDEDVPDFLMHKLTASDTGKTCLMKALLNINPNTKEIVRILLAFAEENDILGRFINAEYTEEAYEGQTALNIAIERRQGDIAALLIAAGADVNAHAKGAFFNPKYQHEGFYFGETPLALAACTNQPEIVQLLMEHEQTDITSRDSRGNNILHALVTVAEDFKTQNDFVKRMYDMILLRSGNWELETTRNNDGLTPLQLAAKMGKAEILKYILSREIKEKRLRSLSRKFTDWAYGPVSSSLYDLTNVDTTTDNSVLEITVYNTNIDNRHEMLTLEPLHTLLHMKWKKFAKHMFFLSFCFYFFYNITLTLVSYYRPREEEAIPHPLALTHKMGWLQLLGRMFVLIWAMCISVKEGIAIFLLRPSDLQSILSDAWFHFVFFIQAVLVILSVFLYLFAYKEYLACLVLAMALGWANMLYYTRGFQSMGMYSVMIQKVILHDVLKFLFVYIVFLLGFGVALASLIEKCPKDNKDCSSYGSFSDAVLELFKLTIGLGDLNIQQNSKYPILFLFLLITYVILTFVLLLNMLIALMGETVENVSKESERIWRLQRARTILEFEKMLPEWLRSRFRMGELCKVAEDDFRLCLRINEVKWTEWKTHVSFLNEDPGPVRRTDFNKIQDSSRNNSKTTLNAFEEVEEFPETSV
Experiment: 45Calcium uptake assay: inhibition of 2-APB induced cellular uptake of radioactive calcium
Type: cell-based
Conditions: human TRPV3 expressing CHO cells, 2-APB 500 μM; for inhibition at 1 µM: 1.0 μM compound, read-out: Percentage inhibition at 1.0 μM; for inhibition at 10 µM: 10.0 μM compound, read-out: Percentage inhibition at 10.0 μM
Text: The illustrative examples of the present invention are screened for TRPV3 activity according to a modified procedure described in Toth, A. et al. Life Sciences (2003), 73, 487-498. The screening of the compounds can be carried out by other methods and procedures known to a person skilled in the art. Such screening methods may be found in Hu, H-Z., et al. J. Biol. Chem. (2004), 279, 35741-35748; Smith, G. D et al. Nature (2002), 418, 186-190 and Peier, A. M., et al. Science (2002), 296, 2046-2049.
Screening for TRPV3 Antagonist Using the ^45Calcium Uptake Assay:
The inhibition of TRPV3 receptor activation was followed as inhibition of 2-APB induced cellular uptake of radioactive calcium. Test compounds were dissolved in DMSO to prepare 20 mM stock and then diluted using plain medium with 0.1% BSA and 1.8 mM CaCl2 to get desired concentration. Final concentration of DMSO in the reaction was 0.5% (v/v). Human TRPV3 expressing CHO cells were grown in F-12 DMEM medium with 10% FBS, 1% penicillin-streptomycin solution, 400 μg/ml of G-418. Cells were seeded 24 h prior to the assay in 96 well plates so as to get ˜50,000 cells per well on the day of experiment. Cells were treated with test compounds for 10 minutes followed by addition of 2-APB at a final concentration of 500 μM and 5 μCi/ml ^45Ca^+2 for 4 minutes. Cells were washed and lysed using buffer containing 1% Triton X-100, 0.1% deoxycholate and 0.1% SDS. Radioactivity in the lysate was measured in Packardt Top count after addition of liquid scintillant.
Concentration response curves were plotted as a % of maximal response obtained in the absence of test antagonist. IC50 value was calculated from concentration response curve by nonlinear regression analysis using GraphPad PRISM software.
Percentage inhibition at concentrations of 1.0 μM and 10.0 μM are given in the table along with IC50 (nM) values for selected examples.

inhibition at 1 µM [%]	inhibition at 10 µM [%]	IC50 [µM]	Compound
1.7	10	–	O=C(Cc1ccccc1)NC1CC2(CCC2)Oc2c(Cl)cccc21 (stereo not shown) [Example 1, N-(8-Chloro-3,4-dihydrospiro[chromene-2,1′-cyclobutan]-4-yl)-2-phenylacetamide]
12	79	> 2	COc1ccccc1CC(=O)NC1CC2(CCC2)Oc2ccc(Cl)cc21 (stereo not shown) [Example 2, N-(6-Chloro-3,4-dihydrospiro[chromene-2,1′-cyclobutan]-4-yl)-2-(2-methoxyphenyl)-acetamide]
0	33.1	–	CS(=O)(=O)Nc1ccccc1CC(=O)NC1CC2(CCC2)Oc2ccc(Cl)cc21 (stereo not shown) [Example 3, N-(6-chloro-3,4-dihydrospiro[chromene-2,1′cyclobutan]-4-yl)-2-{2-[(methylsulfonyl)-amino]phenyl}acetamide]
37.2	66.2	–	COc1cccc(CC(=O)NC2CC3(CCC3)Oc3ccc(Cl)cc32)c1OC1CCCC1 (stereo not shown) [Example 4, N-(6-Chloro-3,4-dihydrospiro[chromene-2,1′-cyclobutan]-4-yl)-2-(2-(cyclopentyloxy)-3-methoxyphenyl)acetamide]
11.7	86.8	–	COc1cccc(CC(=O)N[C@@H]2CC3(CCC3)Oc3c(Cl)cccc32)c1OC1CCCC1 [Example 5, N-[(4R)-8-Chloro-3,4-dihydrospiro[chromene-2,1′-cyclobutan]-4-yl]-2-(2-cyclopentyloxy-3-methoxy)phenylacetamide]
35.3	89	–	COc1cccc(CC(=O)N[C@H]2CC3(CCC3)Oc3c(Cl)cccc32)c1OC1CCCC1 [Example 6, N-[(4S)-8-Chloro-3,4-dihydrospiro[chromene-2,1′-cyclobutan]-4-yl]-2-(2-cyclopentyl-oxy-3-methoxy)phenylacetamide]
9.2	20.3	–	COc1ccc(CC(=O)NC2CC3(CCC3)Oc3ccc(Cl)cc32)cc1OC (stereo not shown) [Example 7, N-(6-Chloro-3,4-dihydrospiro[chromene-2,1′-cyclobutan]-4-yl)-2-(3,4-dimethoxyphenyl)acetamide]
3.8	22.5	–	O=C(Cc1ccccn1)NC1CC2(CCC2)Oc2ccc(Cl)cc21 (stereo not shown) [Example 8, N-(6-Chloro-3,4-dihydrospiro[chromene-2,1′-cyclobutan]-4-yl)-2-pyridin-2-ylacetamide]
11.7	68.5	–	O=C(Cc1cccc2ccccc12)NC1CC2(CCC2)Oc2ccccc21 (stereo not shown) [Example 9, N-(3,4-dihydrospiro[chromene-2,1′-cyclobutan]-4-yl)-2-(1-naphthyl)acetamide]
13.7	92.4	–	O=C(Cc1cccc2ccccc12)NC1CC2(CCC2)Oc2ccc(F)cc21 (stereo not shown) [Example 10]
23.6	76	–	O=C(Cc1cccc2ccccc12)N[C@@H]1CC2(CCC2)Oc2c(F)cc(F)cc21 [Example 11, N-[(4R)-6,8-difluoro-3,4-dihydrospiro[chromene-2,1′-cyclobutan]-4-yl]-2-(1-naphthyl)acetamide]
–	–	0.5 to 1	O=C(Cc1cccc2ccccc12)N[C@@H]1CC2(CCC2)Oc2ccc(Cl)cc21 [Example 12, N-[(4R)-6-Chloro-3,4-dihydrospiro[chromene-2,1′-cyclobutan]-4-yl]-2-(1-naphthyl)acetamide]
5.9	87.6	1 to 2	O=C(Cc1cccc2ccccc12)N[C@H]1CC2(CCC2)Oc2ccc(Cl)cc21 [Example 13, N-[(4S)-6-Chloro-3,4-dihydrospiro[chromene-2,1′-cyclobutan]-4-yl]-2-(1-naphthyl)-acetamide]
9.8	78.8	–	O=C(Cc1cccc2ccccc12)NC1CC2(CCC2)Oc2cc(Cl)ccc21 (stereo not shown) [Example 14, N-(7-Chloro-3,4-dihydrospiro[chromene-2,1′-cyclobutan]-4-yl)-2-(1-naphthyl)acetamide]
–	27.3	–	O=C(Cc1cccc2ccccc12)N[C@@H]1CC2(CCC2)Oc2c(Cl)cccc21 [Example 15, N-[(4R)-8-Chloro-3,4-dihydrospiro[chromene-2,1′-cyclobutan]-4-yl]-2-(1-naphthyl)-acetamide]
0	35.2	–	O=C(Cc1cccc2ccccc12)N[C@H]1CC2(CCC2)Oc2c(Cl)cccc21 [Example 16, N-[(4S)-8-Chloro-3,4-dihydrospiro[chromene-2,1′-cyclobutan]-4-yl]-2-(1-naphthyl)-acetamide]
21.9	70	–	O=C(Cc1cccc2ccccc12)NC1CC2(CCC2)Oc2cccc(O)c21 (stereo not shown) [Example 17, N-(5-Hydroxy-3,4-dihydrospiro[chromene-2,1′-cyclobutan]-4-yl)-2-(1-naphthyl)-acetamide]
36.1	72.3	–	O=C(Cc1ccc2ccccc2c1)NC1CC2(CCC2)Oc2ccc(Cl)cc21 (stereo not shown) [Example 18, N-(6-Chloro-3,4-dihydrospiro[chromene-2,1′-cyclobutan]-4-yl)-2-(2-naphthyl)acetamide]
23.1	61.7	–	COc1ccc2cc([C@H](C)C(=O)N[C@@H]3CC4(CCC4)Oc4ccc(Cl)cc43)ccc2c1 [Example 19, (2S)—N-[(4R)-6-Chloro-3,4-dihydrospiro[chromene-2,1′-cyclobutan]-4-yl]-2-(6-methoxy-2-naphthyl)propanamide]
19.3	50.9	–	COc1ccc2cc([C@H](C)C(=O)N[C@H]3CC4(CCC4)Oc4ccc(Cl)cc43)ccc2c1 [Example 20, (2S)—N-[(4S)-6-Chloro-3,4-dihydrospiro[chromene-2,1′-cyclobutan]-4-yl]-2-(6-methoxy-2-naphthyl)propanamide]
63.5	93.6	0.5 to 1	O=C(CC1CCCc2ccccc21)NC1CC2(CCC2)Oc2ccc(Cl)cc21 (stereo not shown) [Example 21, N-(6-Chloro-3,4-dihydrospiro[chromene-2,1′-cyclobutan]-4-yl)-2-(1,2,3,4-tetrahydronaphthalen-1-yl)acetamide]
35.3	72.1	–	O=C(CC1CCc2ccccc2C1)NC1CC2(CCC2)Oc2ccc(Cl)cc21 (stereo not shown) [Example 22, N-[(6-Chloro-3,4-dihydrospiro[chromene-2,1′-cyclobutan]-4-yl)]-2-(1,2,3,4-tetrahydronaphthalen-2-yl)acetamide]
6.2	65.3	–	O=C(Cc1ccc2c(c1)OCO2)NC1CC2(CCC2)Oc2ccc(Cl)cc21 (stereo not shown) [Example 23, 2-(1,3-Benzodioxol-5-yl)-N-(6-chloro-3,4-dihydrospiro[chromene-2,1′-cyclobutan]-4-yl)acetamide]
26.9	89.9	1 to 2	Cc1c(CC(=O)NC2CC3(CCC3)Oc3ccc(F)cc32)[nH]c2ccc(F)cc12 (stereo not shown) [Example 24, N-(6-Fluoro-3,4-dihydrospiro[chromene-2,1′-cyclobutan]-4-yl)-2-(5-fluoro-3-methyl-1H-indol-2-yl)acetamide]
19	48	–	COc1ccc2[nH]c(C)c(CC(=O)NC3CC4(CCC4)Oc4ccc(Cl)cc43)c2c1 (stereo not shown) [Example 25, N-(6-Chloro-3,4-dihydrospiro[chromene-2,1′-cyclobutan]-4-yl)-2-(5-methoxy-2-methyl-1H-indol-3-yl)acetamide]
